Experimental data from patent US20180008575A1, “METHODS OF TREATING BINGE EATING DISORDER” (Neurovance, Inc., priority 2016, published 2018).

Legend:
[1] = biological target: T1, monoamine oxidase A (MAO A) (Homo sapiens, UniProt P21397); experiment: metabolic pathway
T1 sequence (P21397 1-527): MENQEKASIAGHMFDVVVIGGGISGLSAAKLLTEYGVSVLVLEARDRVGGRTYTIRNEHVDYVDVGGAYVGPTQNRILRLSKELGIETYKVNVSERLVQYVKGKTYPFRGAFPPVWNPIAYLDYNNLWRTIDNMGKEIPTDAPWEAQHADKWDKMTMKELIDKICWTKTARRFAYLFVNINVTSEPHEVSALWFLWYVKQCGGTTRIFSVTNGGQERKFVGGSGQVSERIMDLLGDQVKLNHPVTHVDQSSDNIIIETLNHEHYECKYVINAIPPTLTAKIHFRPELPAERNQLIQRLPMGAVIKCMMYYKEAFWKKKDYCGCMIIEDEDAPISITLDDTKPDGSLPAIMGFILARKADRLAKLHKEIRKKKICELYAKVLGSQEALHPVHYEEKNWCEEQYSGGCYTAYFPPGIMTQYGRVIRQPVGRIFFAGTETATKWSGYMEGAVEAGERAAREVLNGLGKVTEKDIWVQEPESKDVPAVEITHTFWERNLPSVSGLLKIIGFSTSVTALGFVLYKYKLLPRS

[2] = biological target: norepinephrine reuptake (NE) (Homo sapiens, UniProt P23975); experiment: norepinephrine reuptake inhibition; assay type: biochemical; conditions: unbalanced triple reuptake inhibitor
norepinephrine reuptake (NE), sequence (P23975 whole entry): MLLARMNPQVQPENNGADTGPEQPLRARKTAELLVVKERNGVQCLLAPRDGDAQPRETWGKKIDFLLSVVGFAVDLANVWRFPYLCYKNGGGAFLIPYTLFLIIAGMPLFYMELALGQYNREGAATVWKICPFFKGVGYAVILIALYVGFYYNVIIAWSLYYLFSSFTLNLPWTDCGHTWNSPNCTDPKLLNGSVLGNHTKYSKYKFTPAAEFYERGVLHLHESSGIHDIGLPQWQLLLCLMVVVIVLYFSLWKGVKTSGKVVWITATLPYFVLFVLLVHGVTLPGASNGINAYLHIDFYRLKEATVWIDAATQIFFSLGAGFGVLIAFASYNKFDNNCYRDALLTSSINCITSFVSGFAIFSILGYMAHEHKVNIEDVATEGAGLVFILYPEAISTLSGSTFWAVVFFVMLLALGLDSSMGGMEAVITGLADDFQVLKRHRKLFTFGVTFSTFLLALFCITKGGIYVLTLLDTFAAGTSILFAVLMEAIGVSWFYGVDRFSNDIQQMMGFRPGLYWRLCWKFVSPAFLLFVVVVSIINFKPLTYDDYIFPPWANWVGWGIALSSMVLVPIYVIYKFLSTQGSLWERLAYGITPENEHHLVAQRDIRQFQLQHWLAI

[3] = biological target: serotonin reuptake (5-HT) (Homo sapiens, UniProt P31645); experiment: serotonin reuptake inhibition; assay type: biochemical; conditions: fraction of the potency towards NE reuptake
serotonin reuptake (5-HT), sequence (P31645 whole entry): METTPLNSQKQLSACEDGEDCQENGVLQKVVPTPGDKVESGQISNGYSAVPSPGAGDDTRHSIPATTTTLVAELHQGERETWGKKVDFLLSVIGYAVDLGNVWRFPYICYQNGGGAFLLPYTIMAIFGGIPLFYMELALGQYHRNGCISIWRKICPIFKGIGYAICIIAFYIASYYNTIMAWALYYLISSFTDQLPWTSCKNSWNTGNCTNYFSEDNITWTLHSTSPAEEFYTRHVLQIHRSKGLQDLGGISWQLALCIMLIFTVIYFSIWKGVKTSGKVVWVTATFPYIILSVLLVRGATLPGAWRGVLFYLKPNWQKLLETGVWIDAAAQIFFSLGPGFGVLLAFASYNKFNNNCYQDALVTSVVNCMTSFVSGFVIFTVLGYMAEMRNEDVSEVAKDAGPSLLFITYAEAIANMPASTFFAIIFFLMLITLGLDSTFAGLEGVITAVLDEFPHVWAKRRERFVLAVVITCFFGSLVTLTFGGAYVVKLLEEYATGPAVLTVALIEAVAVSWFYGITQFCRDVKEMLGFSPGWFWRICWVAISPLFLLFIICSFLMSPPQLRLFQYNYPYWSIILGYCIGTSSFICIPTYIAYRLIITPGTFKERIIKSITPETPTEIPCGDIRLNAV

dopamine reuptake (DA) = dopamine reuptake (DA) (Homo sapiens, UniProt Q01959); experiment: dopamine reuptake inhibition; assay type: biochemical; conditions: fraction of the potency towards NE reuptake
dopamine reuptake (DA), sequence (Q01959 whole entry): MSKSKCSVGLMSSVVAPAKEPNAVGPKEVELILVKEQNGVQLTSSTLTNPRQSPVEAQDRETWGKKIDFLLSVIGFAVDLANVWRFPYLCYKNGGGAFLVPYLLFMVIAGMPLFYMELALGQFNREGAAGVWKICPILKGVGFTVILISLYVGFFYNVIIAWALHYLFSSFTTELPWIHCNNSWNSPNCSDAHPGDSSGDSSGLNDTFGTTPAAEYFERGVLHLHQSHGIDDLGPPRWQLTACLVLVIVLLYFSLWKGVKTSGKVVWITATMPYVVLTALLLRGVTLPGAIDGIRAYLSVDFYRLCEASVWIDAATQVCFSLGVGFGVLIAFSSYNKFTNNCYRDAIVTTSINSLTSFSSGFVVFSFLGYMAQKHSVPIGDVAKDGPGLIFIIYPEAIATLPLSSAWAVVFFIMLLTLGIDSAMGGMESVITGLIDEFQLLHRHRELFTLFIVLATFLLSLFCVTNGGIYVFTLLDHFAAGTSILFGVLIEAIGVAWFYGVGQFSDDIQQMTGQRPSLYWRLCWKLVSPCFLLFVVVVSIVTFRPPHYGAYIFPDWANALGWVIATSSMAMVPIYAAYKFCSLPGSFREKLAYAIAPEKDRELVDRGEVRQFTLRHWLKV

SMILES: c1ccc2cc([C@]34CNC[C@H]3C4)ccc2c1 [(1R,5S)-1-(naphthalen-2-yl)-3-azabicyclo[3.1.0]hexane]
- primary metabolising enzyme [1]: primarily metabolized by monoamine oxidase A (MAO A)
- potency towards norepinephrine reuptake (relative rank among NE, DA, 5-HT) [2]: most potency towards norepinephrine reuptake
- potency towards serotonin reuptake relative to norepinephrine reuptake [3]: one-fourteenth
- potency towards dopamine reuptake relative to norepinephrine reuptake (dopamine reuptake (DA)): one-sixth
